Consider eleven compounds from ChEMBL document CHEMBL1155654, “Acylated flavonol glycosides from the flower of Inula britannica” (J Nat Prod, 2000).

For assay [1], the system named is HL-60. The assay can be described thus: Antioxidant activity in human HL60 cells assessed as inhibition of TPA-induced free radical formation. It is filed as functional, cell-based.
Assay [2] deals with Radical scavenging activity. The assay can be described thus: Antioxidant activity assessed as DPPH free radical scavenging activity. It is filed as functional. (In general: The DPPH test is a chemical assay of radical scavenging.)
Assay [3] deals with HL-60. The assay can be described thus: Antioxidant activity in human HL60 cells assessed as reduction of cytochrome-c […]. The format is functional, cell-based.

≈ marks a conversion by molar mass, not a printed value. Calls of active or inactive are those of the source. The calls are words filed in the database; no cut-off is given here. A value given as a limit tells only on which side of the number the result lay.

Turning to `COc1c(O[C@@H]2O[C@H](COC(=O)C(C)C)[C@@H](O)[C@H](O)[C@H]2O)cc2oc(-c3ccc(O)c(O)c3)c(O)c(=O)c2c1O`, the outcome in assay [1] was Active. The results for the IC50 in assay [2] and in assay [3] were 14.3 µg/mL (≈ 25.3 µM) and 10.6 µg/mL (≈ 18.8 µM), respectively.
In the same order, the values of `COc1c(O[C@@H]2O[C@H](COC(=O)CC(C)C)[C@@H](O)[C@H](O)[C@H]2O)cc2oc(-c3ccc(O)c(O)c3)c(O)c(=O)c2c1O` are “Active”, 14.3 µg/mL (≈ 24.7 µM) and 11.7 µg/mL (≈ 20.2 µM).
In the same order, the values of `CCC(C)C(=O)OC[C@H]1O[C@@H](Oc2cc3oc(-c4ccc(O)c(O)c4)c(O)c(=O)c3c(O)c2OC)[C@H](O)[C@@H](O)[C@@H]1O` (some centres undefined) are “Active”, 23.5 µg/mL (≈ 40.6 µM) and 11.2 µg/mL (≈ 19.4 µM).
With `O=c1c(O[C@@H]2O[C@H](CO)[C@@H](O)[C@H](O)[C@H]2O)c(-c2ccc(O)cc2)oc2cc(O)cc(O)c12` [ASTRAGALIN], the 50% inhibitory concentration (IC50) in assay [2] was > 100 µg/mL; in assay [3], > 50 µg/mL.
With `COc1c(O)cc2oc(-c3ccc(O)c(O)c3)c(OC)c(=O)c2c1O` [AXILLARIN], in assay [1], the result was Active. Further, the results for the concentration for half-maximal inhibition (IC50) in assay [2] and in assay [3] were 12.4 µg/mL (≈ 35.8 µM) and 2.9 µg/mL (≈ 8.37 µM), respectively.
Consider `O=C(O)c1cc(O)c(O)c(O)c1` [GALLIC ACID], for which the IC50 in assay [2] came out at 3.7 µg/mL (≈ 21.7 µM); in assay [3], 3.2 µg/mL (≈ 18.8 µM).
In the same order, the values of `COc1c(O[C@@H]2O[C@H](CO)[C@@H](O)[C@H](O)[C@H]2O)cc2oc(-c3ccc(O)cc3)cc(=O)c2c1O` [HISPIDULOSIDE] are > 100 µg/mL and > 50 µg/mL.
In the case of `O=c1c(O)c(-c2ccc(O)cc2)oc2cc(O)cc(O)c12` [KAEMPFEROL], the 50% inhibitory concentration (IC50) in assay [2] was 74.4 µg/mL (≈ 260 µM); in assay [3], 10 µg/mL (≈ 34.9 µM).
`O=c1cc(-c2ccc(O)c(O)c2)oc2cc(O)cc(O)c12` [LUTEOLIN]: the outcome in assay [1] was Active. In addition, the values for the half-maximal inhibitory concentration (IC50) in assay [2] and in assay [3] were 7.2 µg/mL (≈ 25.2 µM) and 12.1 µg/mL (≈ 42.3 µM), respectively.
The matching figures for `COc1c(O)cc2oc(-c3ccc(O)c(O)c3)c(O)c(=O)c2c1O` [PATULETIN]: “Active”, 9 µg/mL (≈ 27.1 µM) and 10.1 µg/mL (≈ 30.4 µM).
In the same order, the values of `COc1c(O[C@@H]2O[C@H](CO)[C@@H](O)[C@H](O)[C@H]2O)cc2oc(-c3ccc(O)c(O)c3)c(O)c(=O)c2c1O` [PATULITRIN] are “Active”, 10.3 µg/mL (≈ 20.8 µM) and 8.1 µg/mL (≈ 16.4 µM).

As usually defined, the IC50 is the midpoint of a concentration-inhibition curve.
